According to patent US20070004660A1, “Synergistic Modulation of Flt3 Kinase Using Alkylquinolines and Alkylquinazolines” (priority 2005, published 2007):
pIC50: −log10 of the molar value. Like-named read-outs stand apart in the source and are kept apart here.

Legend:
MV4-11 tumor xenografts = details: for reduction of final tumor weight compared to vehicle-treated group / tumor regression, decrease versus starting mean tumor volume on Day 1: 11 days; for decrease of mean tumor volume compared to vehicle-treated group: Day 11
Protocol: The oral anti-tumor efficacy of a subset of the compounds of the invention was evaluated in vivo using a nude mouse MV4-11 human tumor xenograft regression model.

MV4-11 AML cells = assay: Cell proliferation assay, single agents and FTI/FLT3 inhibitor combinations, MV4-11; type: cell-based, human; details: Homo sapiens, MV4-11; proliferation; FLT3 inhibitor alone or, in combination lines, in the combination
Protocol: Dose responses for the individual compounds alone were determined for each cell line using a standard 72-hour cell proliferation assay (see FIGS. 6.1-6.8). The standard chemotherapeutic agent Cytarabine was used as a control cytotoxic agent in all experiments. […] The FLT3 inhibitors, Compounds A, B, C, D, E, F G and H individually have good potency (sub-micromolar) for the inhibition of FLT3 driven proliferation (compared to the first line cytotoxic agent Cytarabine and Tipifarnib) in cells that depend on FLT3 for growth. Each of these chemically distinct compounds alone has potential for the treatment of disorders related to FLT3, such as FLT3 positive AML. […] The FLT3 inhibitors tested had no effect on THP-1 proliferation. […] (See FIGS. 10.1-10.8 and Tables 1-3, hereafter.)
To statistically evaluate the synergy of a FLT3 inhibitor and an FTI in FLT3 dependent cell lines, dosing combinations were evaluated by the method of Chou and Talalay. See Chou T C, Talalay P. (1984) “Quantitative analysis of dose-effect relationships: the combined effects of multiple drugs or enzyme inhibitors.” Adv Enzyme Regul. 22:27-55. […] Using this method, multiple FTI and FLT3 combinations were evaluated. […]
Cell proliferation assay for MV4-11, Baf3-ITD, Baf3-FLT3 and THP-1 cells. […] Total cell growth is quantified as the difference in luminescent counts (relative light units, RLU) of cell number at Day 0 compared to total cell number at Day 3 (72 hours of growth and/or compound treatment). One hundred percent inhibition of growth is defined as an RLU equivalent to the Day 0 reading. […]
Combination Index Analysis. To determine growth inhibition synergy of a FTI and FLT3 inhibitor combination based on the method of Chou and Talalay (Chou and Talalay. See Chou T C, Talalay P. (1984) “Quantitative analysis of dose-effect relationships: the combined effects of multiple drugs or enzyme inhibitors.” Adv Enzyme Regul. 22:27-55. ), fixed ratio combination dosing with isobolar statistical analysis was performed. […]

MV-4-11 tumor xenografts = assay: In vivo combination study, FLT3 inhibitor Compound B and Tipifarnib, MV-4-11 xenografts; details: for effect on tumor growth compared to Vehicle-treated group: nine days
Protocol: The effect of combination treatment of the FLT3 Inhibitor FLT3 inhibitors of Formula I′ and Tipifarnib (Zarnestra™) on the growth of MV-4-11 human AML tumor xenografts in nude mice was tested using FLT3 inhibitor Compound B. The in vivo study was designed to extend the in vitro observations to evaluate the potential for a synergistic anti-tumor effect of FLT3 inhibitor Compound B administered orally together with Tipifarnib to nude mice bearing established MV-4-11 tumor xenografts.

FLT3 = FLT3 phosphorylation in MV4-11 tumors from treated mice (immunoblot); type: in vivo, human; details: single dose 100 mg/kg po, tumors harvested 2 hours later
Protocol: To establish further that FLT3 inhibitors of Formula I′ reached the expected target in tumor tissue, the level of FLT3 phosphorylation in tumor tissue obtained from vehicle- and compound-treated mice was measured. Results for FLT3 inhibitor Compound B (Compound 73 of Formula I′) and FLT3 inhibitor Compound C (Compound 74 of Formula I′) are shown in FIG. 3 and FIG. 4, respectively. For this pharmacodynamic study, a sub-set of 10 mice from the vehicle-treated control group were randomized into two groups of 5 mice each and then treated with another dose of vehicle or compound (100 mg/kg, po). Tumors were harvested 2 hours later and snap frozen for assessment of FLT3 phosphorylation by immunobloting.
Harvested tumors were processed for immunoblot analysis of FLT3 phosphorylation in the following manner: 100 mg of tumor tissue was dounce homogenized in lysis buffer (50 mM Hepes, 150 mM NaCl, 10% Glycerol, 1% Triton-X-100, 10 mM NaF, 1 mM EDTA, 1.5 mM MgCl2, 10 mM NaPyrophosphate) supplemented with phosphatase (Sigma Cat# P2850) and protease inhibitors (Sigma Cat #P8340). Insoluble debris was removed by centrifugation at 1000×g for 5 minutes at 4° C. Cleared lysates ([…] of total potein at 10 mg/ml in lysis buffer) were incubated with 10 μg of agarose conjugated anti-FLT3 antibody, clone C-20 (Santa Cruz cat # sc-479ac), for 2 hours at 4° C. with gentle agitation. […]

For `CN1CCN(CCCOc2ccc3c(C4CCN(C(=O)Nc5ccc(N6CCOCC6)cc5)CC4)ncnc3c2)CC1` [FLT3 inhibitor Compound B, 4-{7-[3-(4-Methyl-piperazin-1-yl)-propoxy]-quinazolin-4-yl}-piperidine-1-carboxylic acid (4-morpholin-4-yl-phenyl)-amide], the “reduction of final tumor weight compared to vehicle-treated group” value (shortened to “reduction of final tumor weight”) (MV4-11 tumor xenografts; 10 mg/kg b.i.d. po) was 48%, the “decrease of mean tumor volume compared to vehicle-treated group” value (“decrease of mean tumor volume” for short) (MV4-11 tumor xenografts; 10 mg/kg b.i.d. po) was 44% and the “reduction of final tumor weight” value (MV4-11 tumor xenografts; 30 mg/kg b.i.d. po) was 85%. For the same compound, the “tumor regression, decrease versus starting mean tumor volume on Day 1” value (MV4-11 tumor xenografts; 30 mg/kg b.i.d. po) was 42%, the “decrease of mean tumor volume” value (MV4-11 tumor xenografts; 30 mg/kg b.i.d. po) was 84% and the “reduction of final tumor weight” value (MV4-11 tumor xenografts; 100 mg/kg b.i.d. po) was 99%. The “tumor regression, decrease versus starting mean tumor volume on Day 1” value (MV4-11 tumor xenografts; 100 mg/kg b.i.d. po) was 77%, the “decrease of mean tumor volume” value (MV4-11 tumor xenografts; 100 mg/kg b.i.d. po) was 94% and the pIC50 (MV4-11 AML cells) was 7.50. For the same compound, the “effect on tumor growth compared to Vehicle-treated group” value (MV-4-11 tumor xenografts; 10 mg/kg bid po) was “marginal significant inhibition of tumor growth”, the “effect on tumor growth compared to Vehicle-treated group” value (MV-4-11 tumor xenografts; 20 mg/kg bid po) was “tumor growth stasis” and the overt toxicity (MV-4-11 tumor xenografts; 9-day treatment, either agent alone or in combination) was “No overt toxicity”. For the same compound, the “level of FLT3 phosphorylation in MV4-11 tumors versus vehicle” value (FLT3) was “biologically significant reduction”.
